Test results published in article PMC9583322, “Vicinal Diaryl-Substituted Isoxazole and Pyrazole Derivatives with In Vitro Growth Inhibitory and In Vivo Antitumor Activity” (ACS Omega, 2022).

Key:
[1] = test system: 22 cancer cells of the NCI 60 cell line panel; assay: NCI-60 single-dose screen, text summary; type: cell-based; conditions: against 22 cancer cells, read-out: growth inhibition (GI) values in the range
Experimental: Moreover, in vitro single-dose anticancer screening of 11 and 85 at 10 μM was performed utilizing the stable panel of 60 cell lines comprising 9 different cancer types at the National Cancer Institute (NCI) under the Developmental Therapeutics Program (Table S1).[31]

[2] = test system: PLC-PRF-5; assay: SRB cytotoxicity assay; type: cell-based; conditions: Homo sapiens, 72 h treatment
Experimental: (§1) HepG2, FOCUS, Hep3B, Mahlavu, Huh7, Hep40, and PLC-PRF-5 hepatocellular carcinoma cells; MCF-7, MDA-MB-231, MDA-MB-468, SKBR3, and ZR-75 breast cancer cells; and normal-like epithelial MCF-10A breast cells were cultured in low-glucose Dulbecco’s modified Eagle’s medium (DMEM) (Biological Industries-BI) supplemented with 10% fetal bovine serum (FBS) (Gibco/Thermo Fisher Scientific), 2 mM L-Glutamine (Gibco/Thermo Fisher Scientific), 100 Units/mL Penicillin/Streptomycin, and 0.1 mM non-essential amino acid (Gibco/Thermo Fisher Scientific). SNU475 hepatocellular carcinoma cells were maintained in RPMI (Biological Industries-BI) supplemented with 10% fetal bovine serum (FBS) (Gibco/Thermo Fisher Scientific), L-Glutamine (Gibco/Thermo Fisher Scientific), and 100 Units/mL Penicillin/Streptomycin, while ZR-75 breast cancer cells were cultured RPMI (Biological Industries-BI) supplemented with 10% fetal bovine serum (FBS) (Gibco/Thermo Fisher Scientific), 1× sodium pyruvate, and %4.5 glucose. Normal-like MCF-10A breast cells were sustained in DMEM/HAM’S F12 (Hyclone) supplemented with 10% fetal bovine serum (FBS) (Gibco/Thermo Fisher Scientific), EGF (20 ng/mL), Hydrocortisone ([…]), cholera toxin (100 ng/mL), insulin (10 μg/mL), and 100 Units/mL Penicillin/Streptomycin. The cells were cultivated at 37 °C in a humidified incubator under 5% CO2.
(§2) Mahlavu, FOCUS, SNU475 (1000 cell/well in 150 μL/well); Huh7, MCF7 (2500 cell/well in 150 μL/well); HepG2, Hep3B, SKBR3 (3000 cell/well in 150 μL/well); PLC-PRF-5, Hep40 (5000 cell/well in 150 μL/well); MDA-MB-231, MDA-MB-468, MCF10A (6000 cell/well in 150 μL/well); and ZR-75 (7500 cell/well in 150 μL/well) were cultured in 96-well plates and were inoculated in an incubator for 24 hours. The compounds were dissolved in dimethyl sulfoxide (DMSO) (Sigma, St Louis, MO) as a 20 mM stock solution. The treatment of cells with the compounds was done in a concentration range starting from 40 to 2.5 μM. The compounds which were below 2.5 μM were tested in a concentration range from 2.5 to 0.15 μM. End of the 72h compound treatment, the cells were fixed using 10% (v/v) trichloroacetic acid (MERCK) for an hour and washed with ddH2O, and left for air-drying. The fixed plates were stained with 50 μL of sulforhodamine B (SRB) solution (Sigma) at RT for 10 min. To remove unbound SRB dye, acetic acid was used to wash cells three times and left for drying. The protein-bound SRB was solubilized with 10 mM Tris-base (Sigma) and their absorbance was measured with a 96-well plate reader at 515 nm wavelength (ELx800, Biotek). The IC50 values of compounds were calculated in comparison with control group DMSO. Data with R^2 values larger than 0.9 are considered significant.

[3] = test system: SKBR3; assay: SRB cytotoxicity assay; type: cell-based; conditions: Homo sapiens, SK-BR-3, 72 h treatment
Experimental: as §1, §2

[4] = test system: MDA-MB231; assay: SRB cytotoxicity assay; type: cell-based; conditions: Homo sapiens, MDA-MB-231, 72 h treatment
Experimental: as §1, §2

[5] = test system: SNU475; assay: SRB cytotoxicity assay; type: cell-based; conditions: Homo sapiens, SNU-475, 72 h treatment
Experimental: as §1, §2

[6] = test system: FOCUS; assay: SRB cytotoxicity assay; type: cell-based; conditions: Homo sapiens, 72 h treatment
Experimental: as §1, §2

[7] = test system: HepG2; assay: SRB cytotoxicity assay; type: cell-based; conditions: Homo sapiens, 72 h treatment
Experimental: as §1, §2

[8] = test system: Hep40; assay: SRB cytotoxicity assay; type: cell-based; conditions: Homo sapiens, 72 h treatment
Experimental: as §1, §2

[9] = test system: Hep3B; assay: SRB cytotoxicity assay; type: cell-based; conditions: Homo sapiens, 72 h treatment
Experimental: as §1, §2

[10] = test system: MDA-MB468; assay: SRB cytotoxicity assay; type: cell-based; conditions: Homo sapiens, MDA-MB-468, 72 h treatment
Experimental: as §1, §2

[11] = test system: MCF10A; assay: SRB cytotoxicity assay, immortalized normal breast epithelial cells; type: cell-based; conditions: Homo sapiens, MCF-10A, 72 h treatment, non-tumorigenic immortalized breast epithelial cells
Experimental: HepG2, FOCUS, Hep3B, Mahlavu, Huh7, Hep40, and PLC-PRF-5 hepatocellular carcinoma cells; MCF-7, MDA-MB-231, MDA-MB-468, SKBR3, and ZR-75 breast cancer cells; and normal-like epithelial MCF-10A breast cells were cultured in low-glucose Dulbecco’s modified Eagle’s medium (DMEM) (Biological Industries-BI) supplemented with 10% fetal bovine serum (FBS) (Gibco/Thermo Fisher Scientific), 2 mM L-Glutamine (Gibco/Thermo Fisher Scientific), 100 Units/mL Penicillin/Streptomycin, and 0.1 mM non-essential amino acid (Gibco/Thermo Fisher Scientific). […]
Mahlavu, FOCUS, SNU475 (1000 cell/well in 150 μL/well); Huh7, MCF7 (2500 cell/well in 150 μL/well); HepG2, Hep3B, SKBR3 (3000 cell/well in 150 μL/well); PLC-PRF-5, Hep40 (5000 cell/well in 150 μL/well); MDA-MB-231, MDA-MB-468, MCF10A (6000 cell/well in 150 μL/well); and ZR-75 (7500 cell/well in 150 μL/well) were cultured in 96-well plates and were inoculated in an incubator for 24 hours. […] The protein-bound SRB was solubilized with 10 mM Tris-base (Sigma) and their absorbance was measured with a 96-well plate reader at 515 nm wavelength (ELx800, Biotek). The IC50 values of compounds were calculated in comparison with control group DMSO. […]

[12] = test system: MCF7; assay: SRB cytotoxicity assay; type: cell-based, human; conditions: 72 h treatment
In short: (§3)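 Cells seeded 24 h before 72 h compound exposure, 40 to 2.5 μM (or 2.5 to 0.15 μM for compounds below 2.5 μM). TCA-fixed, stained with sulforhodamine B, absorbance at 515 nm. IC50 relative to DMSO control; fits with R^2 above 0.9 accepted.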

[13] = test system: Mahlavu; assay: SRB cytotoxicity assay; type: cell-based, human; conditions: Homo sapiens, Mahlavu, 72 h, 72 h treatment
In short: as §3

[14] = test system: Huh7; assay: SRB cytotoxicity assay; type: cell-based, human; conditions: 72 h treatment
In short: as §3

Compound	inhibition at 10 µM [1] [%]	IC50 [2] [µM]	IC50 [3] [µM]	IC50 [4] [µM]	IC50 [5] [µM]	IC50 [6] [µM]	IC50 [7] [µM]	IC50 [8] [µM]	IC50 [9] [µM]	IC50 [10] [µM]	IC50 [11] [µM]	IC50 ([12]; Homo sapiens, MCF7, 72 h) [µM]	IC50 [13] [µM]	IC50 ([14]; Homo sapiens, Huh-7, 72 h) [µM]	IC50 [12] [µM]	IC50 [14] [µM]
Cc1ccccc1COc1ccc(-c2noc(C)c2-c2ccc(Cl)cc2)cc1 [compound 11, 4-(4-Chlorophenyl)-5-methyl-3-(4-((2-methylbenzyl)oxy)phenyl)isoxazole]	45 to 100	9.5	3.5	2	1.7	2.1	2.1	8.6	3	2.8	12.1	3.8	3.2	1.3	–	–
Cc1ccccc1COc1ccc(-c2ccnn2-c2ccc(Cl)cc2)cc1 [compound 85, 1-(4-Chlorophenyl)-5-(4-((2-methylbenzyl)oxy)phenyl)-1H-pyrazole]	45 to 100	6.5	1.8	0.9	1.5	2.4	1.4	5.2	7.9	1	7.6	< 1	3.7	< 1	0.9	0.7
